This note sets out measurements from patent US8637550B2, “Heteroaryl diamide compounds useful as MMP-13 inhibitors” (Boehringer Ingelheim International GmbH, priority 2008, dated 2014).

pIC50: −log10 of the molar value. Several values for one entry are separate records, joined by “and”; a condition that tells them apart may be missing. Identical values can stand only once.

Usually pIC50 stands for −log10 of the IC50, conventionally taken in molar units. Low readings indicate a large IC50, high ones a small IC50.

The target in the assay is MMP-13 (Homo sapiens, UniProt P45452). Nature of the assay: EnzoLyte 520 Generic MMP Assay Kit, 5-FAM/QXL520 FRET peptide substrate. The class given is biochemical. The source says: The EnzoLyte™ 520 Generic MMP Assay Kit (AnaSpec Inc.) can detect the activity of several MMPs including MMP-1, 2, 3, 7, 8, 9, 13, and 14. This kit uses a 5-FAM/QXL™520 fluorescence resonance energy transfer (FRET) peptide as an MMP substrate.
In turn, `CNC(=O)[C@@H](NC(=O)c1ccc(-c2ccc(OCc3ccccn3)cn2)o1)C1CCCCC1` [N-[(1S)-1-cyclohexyl-2-(methylamino)-2-oxoethyl]-5-[5-(pyridin-2-ylmethoxy)pyridin-2-yl]furan-2-carboxamide] showed a pIC50 of 7.68.
Compound `CNC(=O)[C@@H](NC(=O)c1ccc(-c2ccc(OCc3cccnc3)cn2)o1)C1CCCCC1` [N-[(1S)-1-cyclohexyl-2-(methylamino)-2-oxoethyl]-5-[5-(pyridin-3-ylmethoxy)pyridin-2-yl]furan-2-carboxamide] showed a pIC50 of 8.70.
In turn, `CNC(=O)[C@@H](NC(=O)c1ccc(-c2ccc(OCc3ccncc3)cn2)o1)C1CCCCC1` [N-[(1S)-1-cyclohexyl-2-(methylamino)-2-oxoethyl]-5-[5-(pyridin-4-ylmethoxy)pyridin-2-yl]furan-2-carboxamide] gave a pIC50 of 9.00.
In turn, `CNC(=O)[C@@H](NC(=O)c1ccc(-c2ccc(NS(C)(=O)=O)cc2)o1)C1CCCCC1` [N-[(1S)-1-cyclohexyl-2-(methylamino)-2-oxoethyl]-5-{4-[(methylsulfonyl)amino]phenyl}furan-2-carboxamide] had a pIC50 of 6.34.
Turning to `CNC(=O)[C@@H](NC(=O)c1ccc(-c2ccc(OCc3c[nH]cn3)cn2)o1)C1CCCCC1` [N-[(1S)-1-cyclohexyl-2-(methylamino)-2-oxoethyl]-5-{5-(1H-imidazol-5-ylmethoxy)pyridin-2-yl]furan-2-carboxamide], the negative logarithm of the IC50 (pIC50) was 7.72.
For the compound `CNC(=O)[C@@H](NC(=O)c1ccc(-c2ccc(OCc3cc(C)n(C)n3)cn2)o1)C1CCCCC1` [N-[(1S)-1-cyclohexyl-2-(methylamino)-2-oxoethyl]-5-{5-[(1,5-dimethyl-1H-pyrazol-3-yl)methoxy]pyridin-2-yl}furan-2-carboxamide], the pIC50 was 8.40.
For the compound `CNC(=O)[C@@H](NC(=O)c1ccc(-c2ccc(OCc3cn(C)cn3)cn2)o1)C1CCCCC1` [N-[(1S)-1-cyclohexyl-2-(methylamino)-2-oxoethyl]-5-{5-[(1-methyl-1H-imidazol-4-yl)methoxy]pyridin-2-yl}furan-2-carboxamide], the pIC50 was 6.92.
In turn, `CNC(=O)[C@@H](NC(=O)c1ccc(-c2ccc(OCc3cncn3C)cn2)o1)C1CCCCC1` [N-[(1S)-1-cyclohexyl-2-(methylamino)-2-oxoethyl]-5-{5-[(1-methyl-1H-imidazol-5-yl)methoxy]pyridin-2-yl}furan-2-carboxamide] had a pIC50 of 7.74. Against the preceding compound, the pIC50 is 0.82 log units higher.
Regarding `CNC(=O)[C@@H](NC(=O)c1ccc(-c2ccc(OCc3ccn(C)n3)cn2)o1)C1CCCCC1` [N-[(1S)-1-cyclohexyl-2-(methylamino)-2-oxoethyl]-5-{5-[(1-methyl-1H-pyrazol-3-yl)methoxy]pyridin-2-yl}furan-2-carboxamide], the pIC50 was 7.60.
Compound `CNC(=O)[C@@H](NC(=O)c1ccc(-c2ccc(OCc3ccnn3C)cn2)o1)C1CCCCC1` [N-[(1S)-1-cyclohexyl-2-(methylamino)-2-oxoethyl]-5-{5-[(1-methyl-1H-pyrazol-5-yl)methoxy]pyridin-2-yl}furan-2-carboxamide] gave a pIC50 of 8.22.
Turning to `CNC(=O)[C@@H](NC(=O)c1ccc(-c2ccc(O[C@H](C)c3ccncc3)cn2)o1)C1CCCCC1` [N-[(1S)-1-cyclohexyl-2-(methylamino)-2-oxoethyl]-5-{5-[(1R)-1-(pyridin-4-yl)ethoxy]pyridin-2-yl}furan-2-carboxamide], the pIC50 is 8.52.
As to `CNC(=O)[C@@H](NC(=O)c1ccc(-c2ccc(O[C@H](C)c3ccccc3)cn2)o1)C1CCCCC1` [N-[(1S)-1-cyclohexyl-2-(methylamino)-2-oxoethyl]-5-{5-[(1R)-1-phenylethoxy]pyridin-2-yl}furan-2-carboxamide], the pIC50 was 7.39 and 7.14.
In turn, `CNC(=O)[C@@H](NC(=O)c1ccc(-c2ccc(O[C@@H](C)c3ccccc3)cn2)o1)C1CCCCC1` [N-[(1S)-1-cyclohexyl-2-(methylamino)-2-oxoethyl]-5-{5-[(1S)-1-phenylethoxy]pyridin-2-yl}furan-2-carboxamide] showed a pIC50 of 6.53.
Next, `CNC(=O)[C@@H](NC(=O)c1ccc(-c2ccc(OCc3cc(C)nc(C)c3)cn2)o1)C1CCCCC1` [N-[(1S)-1-cyclohexyl-2-(methylamino)-2-oxoethyl]-5-{5-[(2,6-dimethylpyridin-4-yl)methoxy]pyridin-2-yl}furan-2-carboxamide]: 8.70.
Next, `CNC(=O)[C@@H](NC(=O)c1ccc(-c2ccc(OCc3ccnc(C)c3)cn2)o1)C1CCCCC1` [N-[(1S)-1-cyclohexyl-2-(methylamino)-2-oxoethyl]-5-{5-[(2-methylpyridin-4-yl)methoxy]pyridin-2-yl}furan-2-carboxamide]: 9.00.
In turn, `CNC(=O)[C@@H](NC(=O)c1ccc(-c2ccc(OCc3cc(C)cc(C)c3)cn2)o1)C1CCCCC1` [N-[(1S)-1-cyclohexyl-2-(methylamino)-2-oxoethyl]-5-{5-[(3,5-dimethylbenzyl)oxy]pyridin-2-yl}furan-2-carboxamide] showed a pIC50 of 6.94.
Consider `CNC(=O)[C@@H](NC(=O)c1ccc(-c2ccc(OCc3cccc(C)c3)cn2)o1)C1CCCCC1` [N-[(1S)-1-cyclohexyl-2-(methylamino)-2-oxoethyl]-5-{5-[(3-methylbenzyl)oxy]pyridin-2-yl}furan-2-carboxamide], for which the negative logarithm of the IC50 (pIC50) was 7.44.
The compound `CNC(=O)[C@@H](NC(=O)c1ccc(-c2ccc(OCc3ccncc3C)cn2)o1)C1CCCCC1` [N-[(1S)-1-cyclohexyl-2-(methylamino)-2-oxoethyl]-5-{5-[(3-methylpyridin-4-yl)methoxy]pyridin-2-yl}furan-2-carboxamide] had a pIC50 of 8.52.
Next, `CNC(=O)[C@@H](NC(=O)c1ccc(-c2ccc(OCc3cc(C)ccn3)cn2)o1)C1CCCCC1` [N-[(1S)-1-cyclohexyl-2-(methylamino)-2-oxoethyl]-5-{5-[(4-methylpyridin-2-yl)methoxy]pyridin-2-yl}furan-2-carboxamide]: 8.10.
The compound `CNC(=O)[C@@H](NC(=O)c1ccc(-c2ccc(OCc3cn(C)cn3)cn2)o1)C1CCNCC1` [N-[(1S)-2-(methylamino)-2-oxo-1-(piperidin-4-yl)ethyl]-5-{5-[(1-methyl-1H-imidazol-4-yl)methoxy]pyridin-2-yl}furan-2-carboxamide] showed a pIC50 of 6.79. This pIC50 lies 1.31 log units lower than the previous one.
The same measure for `NC(=O)COCCNC(=O)[C@@H](NC(=O)c1ccc(-c2ccc(Cl)cc2)o1)C1CCCCC1` [N-[(1S)-2-{[2-(2-amino-2-oxoethoxy)ethyl]amino}-1-cyclohexyl-2-oxoethyl]-5-(4-chlorophenyl)furan-2-carboxamide]: 6.49; for `COCC(C)NC(=O)[C@@H](NC(=O)c1ccc(-c2ccc(NC(=O)c3cc4ccccc4o3)cc2)o1)C1CCCCC1` (stereo partly drawn) [N-{4-[5-({(1S)-1-cyclohexyl-2-[(1-methoxypropan-2-yl)amino]-2-oxoethyl}carbamoyl)furan-2-yl]phenyl}-1-benzofuran-2-carboxamide]: 6.45.
